# From the kinase profiling compilation of Christmann-Franck et al. (2016)
# How the values were obtained:
# Experiment in all cases: KINOMEscan competition binding
# Conditions in all cases: compound 2.0 µM
# [1] = tested on: ABL1 (human), P00519 [Y253F]
# [2] = target: AURKB (human) (UniProt Q96GD4)
# [3] = target: BMPR2 (human) (UniProt Q13873)
# [4] = target: BMX (human) (UniProt P51813)
# [5] = target: BRSK2 (human) (UniProt Q8IWQ3)
# [6] = target: CAMK2A (human) (UniProt Q9UQM7)
# [7] = target: CAMK2D (human) (UniProt Q13557)
# [8] = target: CAMK2G (human) (UniProt Q13555)
# [9] = target: CAMKK1 (human) (UniProt Q8N5S9)
# [10] = target: CDKL5 (human) (UniProt O76039)
# [11] = target: CRK2 (P.falciparum) (UniProt P61075)
# [12] = target: CSNK1G3 (human) (UniProt Q9Y6M4)
# [13] = target: DCLK2 (human) (UniProt Q8N568)
# [14] = target: DMPK (human) (UniProt Q09013)
# [15] = target: DYRK1A (human) (UniProt Q13627)
# [16] = target: EPHB1 (human) (UniProt P54762)
# [17] = target: FGR (human) (UniProt P09769)
# [18] = target: FLT1 (human) (UniProt P17948)
# [19] = target: ITK (human) (UniProt Q08881)
# [20] = target: JAK1 JH1 catalytic (human) (UniProt P23458)
# [21] = tested on: LRRK2 (human), Q5S007 [G2019S]
# [22] = target: MAK (human) (UniProt P20794)
# [23] = target: MAP2K4 (human) (UniProt P45985)
# [24] = target: MAP3K3 (human) (UniProt Q99759)
# [25] = target: MAP4K4 (human) (UniProt O95819)
# [26] = target: MAPK12 (human) (UniProt P53778)
# [27] = target: MAPK13 (human) (UniProt O15264)
# [28] = target: MARK1 (human) (UniProt Q9P0L2)
# [29] = target: MARK3 (human) (UniProt P27448)
# Sequence of MARK3 (human) (P27448 whole entry, looked up): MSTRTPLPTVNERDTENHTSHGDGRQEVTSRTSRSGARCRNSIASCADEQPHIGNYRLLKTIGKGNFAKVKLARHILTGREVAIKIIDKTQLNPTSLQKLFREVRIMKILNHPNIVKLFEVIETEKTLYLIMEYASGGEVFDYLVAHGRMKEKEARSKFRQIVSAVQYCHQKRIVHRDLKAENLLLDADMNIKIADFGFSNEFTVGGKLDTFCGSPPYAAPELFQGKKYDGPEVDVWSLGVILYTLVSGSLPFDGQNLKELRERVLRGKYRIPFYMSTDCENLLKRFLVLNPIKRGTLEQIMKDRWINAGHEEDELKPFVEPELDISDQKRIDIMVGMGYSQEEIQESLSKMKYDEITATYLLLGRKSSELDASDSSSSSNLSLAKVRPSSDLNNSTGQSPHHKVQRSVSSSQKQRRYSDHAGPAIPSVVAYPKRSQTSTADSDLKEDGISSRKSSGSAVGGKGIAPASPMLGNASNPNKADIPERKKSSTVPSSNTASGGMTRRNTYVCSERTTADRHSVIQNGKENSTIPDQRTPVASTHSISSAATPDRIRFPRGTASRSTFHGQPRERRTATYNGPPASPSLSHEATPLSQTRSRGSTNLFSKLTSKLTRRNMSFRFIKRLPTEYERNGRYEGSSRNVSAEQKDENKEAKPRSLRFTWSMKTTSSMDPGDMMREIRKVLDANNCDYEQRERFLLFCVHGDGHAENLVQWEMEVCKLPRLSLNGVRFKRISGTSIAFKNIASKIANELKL
# [30] = target: MST1R (human) (UniProt Q04912)
# Sequence of MST1R (human) (Q04912 whole entry, looked up): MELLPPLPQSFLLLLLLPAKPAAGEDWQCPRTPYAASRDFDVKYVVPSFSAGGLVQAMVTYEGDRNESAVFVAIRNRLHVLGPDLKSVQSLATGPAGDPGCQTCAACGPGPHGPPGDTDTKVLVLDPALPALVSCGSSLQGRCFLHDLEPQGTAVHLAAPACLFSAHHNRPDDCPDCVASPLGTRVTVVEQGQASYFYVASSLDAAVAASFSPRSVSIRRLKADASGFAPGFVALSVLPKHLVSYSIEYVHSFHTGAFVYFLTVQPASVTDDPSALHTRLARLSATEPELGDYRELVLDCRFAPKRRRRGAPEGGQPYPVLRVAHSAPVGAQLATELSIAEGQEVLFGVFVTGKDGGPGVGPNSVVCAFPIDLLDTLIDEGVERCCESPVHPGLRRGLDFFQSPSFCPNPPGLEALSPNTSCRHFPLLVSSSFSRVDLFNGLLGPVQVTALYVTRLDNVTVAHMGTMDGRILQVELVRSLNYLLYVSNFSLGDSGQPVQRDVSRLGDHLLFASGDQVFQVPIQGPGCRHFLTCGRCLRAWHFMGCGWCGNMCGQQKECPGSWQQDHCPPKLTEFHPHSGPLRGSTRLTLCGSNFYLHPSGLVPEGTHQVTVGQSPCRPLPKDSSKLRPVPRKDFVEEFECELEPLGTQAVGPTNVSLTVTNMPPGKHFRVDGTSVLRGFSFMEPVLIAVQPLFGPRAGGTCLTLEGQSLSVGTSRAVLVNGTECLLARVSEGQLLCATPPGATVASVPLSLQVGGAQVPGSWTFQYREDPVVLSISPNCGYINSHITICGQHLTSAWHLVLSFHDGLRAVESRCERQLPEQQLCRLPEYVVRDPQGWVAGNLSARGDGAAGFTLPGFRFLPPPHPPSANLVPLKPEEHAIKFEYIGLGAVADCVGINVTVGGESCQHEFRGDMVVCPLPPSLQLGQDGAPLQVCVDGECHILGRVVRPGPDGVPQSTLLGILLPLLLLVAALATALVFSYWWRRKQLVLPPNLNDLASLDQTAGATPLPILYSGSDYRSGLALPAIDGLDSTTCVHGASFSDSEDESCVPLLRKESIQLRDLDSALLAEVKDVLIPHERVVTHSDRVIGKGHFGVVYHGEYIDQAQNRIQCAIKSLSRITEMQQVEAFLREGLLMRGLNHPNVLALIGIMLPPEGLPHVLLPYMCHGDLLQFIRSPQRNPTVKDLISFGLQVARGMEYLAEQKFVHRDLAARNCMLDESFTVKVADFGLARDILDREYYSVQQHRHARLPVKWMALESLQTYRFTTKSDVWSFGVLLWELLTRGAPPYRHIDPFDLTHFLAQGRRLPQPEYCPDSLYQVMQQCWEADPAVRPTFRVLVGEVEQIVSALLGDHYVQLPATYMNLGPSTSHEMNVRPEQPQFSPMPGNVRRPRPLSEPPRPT
# [31] = target: MTOR (human) (UniProt P42345)
# [32] = target: NEK11 (human) (UniProt Q8NG66)
# [33] = target: NIM1 (human) (UniProt Q8IY84)
# [34] = target: PAK3 (human) (UniProt O75914)
# [35] = target: PAK6 (human) (UniProt Q9NQU5)
# Sequence of PAK6 (human) (Q9NQU5 whole entry, looked up): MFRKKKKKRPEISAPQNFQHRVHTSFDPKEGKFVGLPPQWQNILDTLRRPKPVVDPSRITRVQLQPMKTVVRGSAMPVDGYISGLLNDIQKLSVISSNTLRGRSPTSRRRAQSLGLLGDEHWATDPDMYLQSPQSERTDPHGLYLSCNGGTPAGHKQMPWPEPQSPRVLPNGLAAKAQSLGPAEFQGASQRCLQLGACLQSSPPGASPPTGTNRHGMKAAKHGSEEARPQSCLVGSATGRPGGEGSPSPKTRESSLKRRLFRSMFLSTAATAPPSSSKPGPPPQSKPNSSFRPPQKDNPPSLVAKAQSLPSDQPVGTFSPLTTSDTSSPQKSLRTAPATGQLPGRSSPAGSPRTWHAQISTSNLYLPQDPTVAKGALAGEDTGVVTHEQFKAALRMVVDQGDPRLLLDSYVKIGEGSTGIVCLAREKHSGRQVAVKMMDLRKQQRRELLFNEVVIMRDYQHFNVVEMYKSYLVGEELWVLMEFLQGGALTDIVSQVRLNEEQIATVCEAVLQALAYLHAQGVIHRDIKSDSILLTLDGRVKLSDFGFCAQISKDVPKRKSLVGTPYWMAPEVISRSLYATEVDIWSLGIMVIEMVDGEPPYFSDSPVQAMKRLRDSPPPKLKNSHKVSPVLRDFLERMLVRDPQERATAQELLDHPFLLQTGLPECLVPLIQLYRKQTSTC
# [36] = target: PDGFRB (human) (UniProt P09619)
# Sequence of PDGFRB (human) (P09619 whole entry, looked up): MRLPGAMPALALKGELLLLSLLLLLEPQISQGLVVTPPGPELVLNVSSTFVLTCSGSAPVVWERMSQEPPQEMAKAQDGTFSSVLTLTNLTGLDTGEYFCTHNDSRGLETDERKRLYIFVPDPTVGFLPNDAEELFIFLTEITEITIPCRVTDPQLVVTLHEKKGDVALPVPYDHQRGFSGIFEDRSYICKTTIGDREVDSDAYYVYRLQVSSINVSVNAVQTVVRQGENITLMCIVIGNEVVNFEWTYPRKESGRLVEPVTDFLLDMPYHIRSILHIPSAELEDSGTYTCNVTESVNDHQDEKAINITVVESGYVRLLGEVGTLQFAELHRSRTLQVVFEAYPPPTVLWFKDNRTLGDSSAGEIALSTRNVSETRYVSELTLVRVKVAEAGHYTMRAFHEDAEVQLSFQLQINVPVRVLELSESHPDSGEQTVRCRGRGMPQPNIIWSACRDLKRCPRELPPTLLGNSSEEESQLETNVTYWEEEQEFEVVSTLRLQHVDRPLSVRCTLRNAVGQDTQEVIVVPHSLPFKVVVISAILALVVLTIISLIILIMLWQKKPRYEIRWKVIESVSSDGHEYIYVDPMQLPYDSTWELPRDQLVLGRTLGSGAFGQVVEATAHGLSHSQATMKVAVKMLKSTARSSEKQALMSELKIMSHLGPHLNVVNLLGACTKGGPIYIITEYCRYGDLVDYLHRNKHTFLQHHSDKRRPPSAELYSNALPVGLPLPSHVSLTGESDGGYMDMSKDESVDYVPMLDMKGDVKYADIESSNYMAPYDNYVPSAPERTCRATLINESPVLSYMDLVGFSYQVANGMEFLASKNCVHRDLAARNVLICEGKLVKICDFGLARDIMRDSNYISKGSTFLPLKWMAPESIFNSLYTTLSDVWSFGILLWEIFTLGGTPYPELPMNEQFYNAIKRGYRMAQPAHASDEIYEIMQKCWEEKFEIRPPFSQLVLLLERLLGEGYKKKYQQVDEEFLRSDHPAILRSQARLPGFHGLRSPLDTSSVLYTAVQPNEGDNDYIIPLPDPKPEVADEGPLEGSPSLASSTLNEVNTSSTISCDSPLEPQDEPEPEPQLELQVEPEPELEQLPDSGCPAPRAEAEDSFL
# [37] = target: PIK3CA (human) (UniProt P42336)
# [38] = target: PLK3 (human) (UniProt Q9H4B4)
# [39] = target: PRKCE (human) (UniProt Q02156)
# [40] = target: RPS6KA5 KD2 (human) (UniProt O75582)
# [41] = target: SNRK (human) (UniProt Q9NRH2)
# [42] = target: STK17B (human) (UniProt O94768)
# [43] = target: STK35 (human) (UniProt Q8TDR2)
# Sequence of BMX (human) (P51813 whole entry, looked up): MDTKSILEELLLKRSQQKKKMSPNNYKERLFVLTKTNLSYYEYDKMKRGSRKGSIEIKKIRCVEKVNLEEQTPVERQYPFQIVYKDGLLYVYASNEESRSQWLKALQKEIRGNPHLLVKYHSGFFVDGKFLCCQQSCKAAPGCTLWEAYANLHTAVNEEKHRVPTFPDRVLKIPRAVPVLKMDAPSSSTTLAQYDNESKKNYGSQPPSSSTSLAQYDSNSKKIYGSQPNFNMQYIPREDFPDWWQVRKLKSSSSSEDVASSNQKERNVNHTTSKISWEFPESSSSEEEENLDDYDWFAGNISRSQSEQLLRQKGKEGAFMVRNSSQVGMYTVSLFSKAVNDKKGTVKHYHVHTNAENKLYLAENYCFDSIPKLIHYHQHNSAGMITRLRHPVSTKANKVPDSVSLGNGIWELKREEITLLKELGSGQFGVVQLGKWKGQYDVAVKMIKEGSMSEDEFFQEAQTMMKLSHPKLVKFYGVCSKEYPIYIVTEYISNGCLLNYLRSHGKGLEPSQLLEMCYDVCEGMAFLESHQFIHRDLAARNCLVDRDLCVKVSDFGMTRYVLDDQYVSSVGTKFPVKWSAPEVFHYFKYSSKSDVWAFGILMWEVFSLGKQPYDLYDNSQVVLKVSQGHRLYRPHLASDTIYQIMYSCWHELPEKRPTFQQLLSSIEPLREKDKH
# Sequence of CAMK2A (human) (Q9UQM7 whole entry, looked up): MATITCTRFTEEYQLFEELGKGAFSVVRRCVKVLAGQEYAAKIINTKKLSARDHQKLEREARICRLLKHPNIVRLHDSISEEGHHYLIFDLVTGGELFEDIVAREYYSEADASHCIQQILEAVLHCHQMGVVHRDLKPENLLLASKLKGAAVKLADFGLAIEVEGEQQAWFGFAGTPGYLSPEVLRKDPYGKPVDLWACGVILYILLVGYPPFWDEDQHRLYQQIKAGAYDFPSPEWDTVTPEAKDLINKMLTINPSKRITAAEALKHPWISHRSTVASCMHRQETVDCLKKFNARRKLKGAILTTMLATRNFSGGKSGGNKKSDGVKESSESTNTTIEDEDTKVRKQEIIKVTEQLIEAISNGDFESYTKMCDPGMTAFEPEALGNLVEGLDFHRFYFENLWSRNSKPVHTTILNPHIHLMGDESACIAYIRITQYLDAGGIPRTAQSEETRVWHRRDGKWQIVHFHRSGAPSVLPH
smiles,measurement,setting,value
N#Cc1ccc2ncnc(NCCc3ccc4ccccc4c3)c2c1,"kinase still bound, per cent of control",[1],100%
same,"kinase still bound, per cent of control",[2],79%
same,"kinase still bound, per cent of control",[3],100%
same,"kinase still bound, per cent of control",[4],97%
same,"kinase still bound, per cent of control",[5],100%
same,"kinase still bound, per cent of control",[6],99%
same,"kinase still bound, per cent of control",[7],100%
same,"kinase still bound, per cent of control",[8],100%
same,"kinase still bound, per cent of control",[9],97%
same,"kinase still bound, per cent of control",[10],100%
same,"kinase still bound, per cent of control",[11],100%
same,"kinase still bound, per cent of control",[12],81%
same,"kinase still bound, per cent of control",[13],100%
same,"kinase still bound, per cent of control",[14],100%
same,"kinase still bound, per cent of control",[15],100%
same,"kinase still bound, per cent of control",[16],87%
same,"kinase still bound, per cent of control",[17],100%
same,"kinase still bound, per cent of control",[18],89%
same,"kinase still bound, per cent of control",[19],80%
same,"kinase still bound, per cent of control",[20],59%
same,"kinase still bound, per cent of control",[21],100%
same,"kinase still bound, per cent of control",[22],99%
same,"kinase still bound, per cent of control",[23],89%
same,"kinase still bound, per cent of control",[24],100%
same,"kinase still bound, per cent of control",[25],97%
same,"kinase still bound, per cent of control",[26],100%
same,"kinase still bound, per cent of control",[27],100%
same,"kinase still bound, per cent of control",[28],83%
same,"kinase still bound, per cent of control",[29],95%
same,"kinase still bound, per cent of control",[30],100%
same,"kinase still bound, per cent of control",[31],80%
same,"kinase still bound, per cent of control",[32],99%
same,"kinase still bound, per cent of control",[33],82%
same,"kinase still bound, per cent of control",[34],100%
same,"kinase still bound, per cent of control",[35],80%
same,"kinase still bound, per cent of control",[36],100%
same,"kinase still bound, per cent of control",[37],78%
same,"kinase still bound, per cent of control",[38],80%
same,"kinase still bound, per cent of control",[39],100%
same,"kinase still bound, per cent of control",[40],100%
same,"kinase still bound, per cent of control",[41],36%
same,"kinase still bound, per cent of control",[42],100%
same,"kinase still bound, per cent of control",[43],100%
